Experimental data: patent US20240217983A1, “GPR119 AGONISTS” (Kallyope, Inc., priority 2021, published 2024)
Structures can show the parent of a compound that is named as a salt.

Target: T1, human GPR119 (hGPR119) (Homo sapiens, UniProt Q8TDV5)
T1 construct: expressed in transfected cells
T1 sequence (Q8TDV5 1-335): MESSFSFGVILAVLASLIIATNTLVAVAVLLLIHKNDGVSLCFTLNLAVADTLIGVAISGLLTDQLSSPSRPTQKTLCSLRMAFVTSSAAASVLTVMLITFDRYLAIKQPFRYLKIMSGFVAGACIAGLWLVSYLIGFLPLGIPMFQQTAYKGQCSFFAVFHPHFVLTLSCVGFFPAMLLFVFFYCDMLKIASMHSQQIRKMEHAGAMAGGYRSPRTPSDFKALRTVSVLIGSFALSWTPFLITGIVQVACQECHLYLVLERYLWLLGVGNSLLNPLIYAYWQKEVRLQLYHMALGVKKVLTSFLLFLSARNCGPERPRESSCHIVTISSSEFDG
Assay: cAMP accumulation assay (Cisbio cAMP Gs dynamic HTRF kit) in CHO-K1 cells stably expressing human GPR119
Assay type: cell-based
Settings: 4-parameter fit; for Emax: 1 h, % activity normalized to Max and Min controls; for EC50: 60 minutes at 37° C.
Method in brief: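 CHO-K1 cells stably expressing hGPR119, used as assay-ready frozen stocks at ~10,000 cells/well, exposed to compound dose-response in stimulation buffer with Tween 80 for 60 min at 37° C. cAMP read by HTRF (665/620 nm ratio), normalised to Max/Min controls; EC50 and Max activity from 4-parameter fit.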

Row | Emax | EC50 | SMILES
1 | ≥ 130% | ≤ 100 nM | O=C(Cc1ccc(OCCCC2CCN(c3ncc(Cl)cn3)CC2)cc1F)N1CCC2(CCCC2NC[C@H](O)[C@H](O)[C@H](O)CO)C1 (stereo partly drawn) [Example 76, 2-(4-(3-(1-(5-chloropyrimidin-2-yl)piperidin-4-yl)propoxy)-2-fluorophenyl)-1-(6-(((2S,3S,4R)-2,3,4,5-tetrahydroxypentyl)amino)-2-azaspiro[4.4]nonan-2-yl)ethan-1-one]
2 | 100 to 130% | ≤ 100 nM | O=C(Cc1ccc(OCC2CC(C3CCN(c4ncc(Cl)cn4)CC3)C2)cc1F)N1CCN(C[C@H](O)[C@@H](O)[C@H](O)[C@H](O)CO)CC1 (stereo partly drawn) [Example 114, 2-(4-((3-(1-(5-chloropyrimidin-2-yl)piperidin-4-yl)cyclobutyl)methoxy)-2-fluorophenyl)-1-(4-((2S,3R,4R,5R)-2,3,4,5,6-pentahydroxyhexyl)piperazin-1-yl)ethan-1-one]
3 | 100 to 130% | 100 to 1000 nM | O=C(Cc1ccc(OCCCC2CCN(c3ncc(Cl)cn3)CC2)nc1)N1CCN(C[C@H](O)[C@@H](O)[C@H](O)[C@H](O)CO)CC1 [Example 90, 2-(6-(3-(1-(5-chloropyrimidin-2-yl)piperidin-4-yl)propoxy)pyridin-3-yl)-1-(4-((2S,3R,4R,5R)-2,3,4,5,6-pentahydroxyhexyl)piperazin-1-yl)ethan-1-one]
4 | 100 to 130% | > 10000 nM | O=C(Cc1ccc(OCCCC2CCN(c3ncc(Cl)cn3)CC2)cn1)N1CCN(C[C@H](O)[C@@H](O)[C@H](O)[C@H](O)CO)CC1 [Example 88, 2-(5-(3-(1-(5-chloropyrimidin-2-yl)piperidin-4-yl)propoxy)pyridin-2-yl)-1-(4-((2S,3R,4R,5R)-2,3,4,5,6-pentahydroxyhexyl)piperazin-1-yl)ethan-1-one]
5 | 100 to 130% | > 10000 nM | O=C(CCCCS(=O)(=O)O)N1CC2(CCN2C(=O)Cc2ccc(OCCCC3CCN(c4ncc(Cl)cn4)CC3)cc2F)C1 [Example 9, 5-(1-(2-(4-(3-(1-(5-chloropyrimidin-2-yl)piperidin-4-yl)propoxy)-2-fluorophenyl)acetyl)-1,6-diazaspiro[3.3]heptan-6-yl)-5-oxopentane-1-sulfonic acid]
6 | 100 to 130% | ≤ 100 nM | O=C(Cc1ccc(OCCCC2CCN(c3ncc(Cl)cn3)CC2)cc1F)N1CC2CCC1CN2C[C@H](O)[C@@H](O)[C@H](O)[C@H](O)CO (stereo partly drawn) [Example 53, 2-(4-(3-(1-(5-chloropyrimidin-2-yl)piperidin-4-yl)propoxy)-2-fluorophenyl)-1-(5-((2S,3R,4R,5R)-2,3,4,5,6-pentahydroxyhexyl)-2,5-diazabicyclo[2.2.2]octan-2-yl)ethan-1-one]
7 | 100 to 130% | ≤ 100 nM | CCCc1cnc(N2CCC(CCCOc3cc(F)c(CC(=O)N4CCN(C[C@H](O)[C@@H](O)[C@H](O)[C@H](O)CO)CC4)c(F)c3)CC2)nc1 [Example 95, 2-(2,6-difluoro-4-(3-(1-(5-propylpyrimidin-2-yl)piperidin-4-yl)propoxy)phenyl)-1-(4-((2S,3R,4R,5R)-2,3,4,5,6-pentahydroxyhexyl)piperazin-1-yl)ethan-1-one]
8 | 100 to 130% | 100 to 1000 nM | O=C(Cc1ccc(OCCC2CC23CCN(c2ncc(Cl)cn2)CC3)cc1F)N1CCN(C[C@H](O)[C@@H](O)[C@H](O)[C@H](O)CO)CC1 (stereo partly drawn) [Example 108, 2-(4-(2-(6-(5-chloropyrimidin-2-yl)-6-azaspiro[2.5]octan-1-yl)ethoxy)-2-fluorophenyl)-1-(4-((2S,3R,4R,5R)-2,3,4,5,6-pentahydroxyhexyl)piperazin-1-yl)ethan-1-one]
9 | 100 to 130% | ≤ 100 nM | O=C(CCCCS(=O)(=O)O)N1CCN(C(=O)Cc2ccc(OCCCC3CCN(c4ncc(Cl)cn4)CC3)cc2F)CC1 [Example 23, 5-(4-(2-(4-(3-(1-(5-chloropyrimidin-2-yl)piperidin-4-yl)propoxy)-2-fluorophenyl)acetyl)piperazin-1-yl)-5-oxopentane-1-sulfonic acid]
10 | ≥ 130% | ≤ 100 nM | O=C(Cc1c(F)cc(OCCCC2CCN(c3ncc(Cl)cn3)CC2)cc1F)N1CCN(C[C@H](O)[C@@H](O)[C@H](O)[C@H](O)CO)CC1 [Example 85, 2-(4-(3-(1-(5-chloropyrimidin-2-yl)piperidin-4-yl)propoxy)-2,6-difluorophenyl)-1-(4-((2S,3R,4R,5R)-2,3,4,5,6-pentahydroxyhexyl)piperazin-1-yl)ethan-1-one formate]
11 | 100 to 130% | ≤ 100 nM | O=C(Cc1ccc(OCCCC2CCN(c3ncc(Cl)cn3)CC2)cc1F)N1C[C@@H]2CCN(C[C@H](O)[C@@H](O)[C@H](O)[C@H](O)CO)[C@@H]2C1 [Example 35, 2-(4-(3-(1-(5-chloropyrimidin-2-yl)piperidin-4-yl)propoxy)-2-fluorophenyl)-1-((3aS,6aS)-1-((2S,3R,4R,5R)-2,3,4,5,6-pentahydroxyhexyl)hexahydropyrrolo[3,4-b]pyrrol-5(1H)-yl)ethan-1-one]
12 | 100 to 130% | ≤ 100 nM | O=C(Cc1ccc(OCCCC2CCN(c3ncc(Cl)cn3)CC2)cc1F)N1CC2(CCN2C[C@H](O)[C@H](O)[C@H](O)CO)C1 [Example 32, 2-(4-(3-(1-(5-chloropyrimidin-2-yl)piperidin-4-yl)propoxy)-2-fluorophenyl)-1-(1-((2S,3S,4R)-2,3,4,5-tetrahydroxypentyl)-1,6-diazaspiro[3.3]heptan-6-yl)ethan-1-one]
13 | 100 to 130% | ≤ 100 nM | O=C(Cc1ccc(OCCCC2CCN(c3ncc(Cl)cn3)CC2)cc1F)N1CC2(C1)N(C[C@H](O)[C@H](O)[C@H](O)CO)CC2(F)F [Example 62, 2-(4-(3-(1-(5-chloropyrimidin-2-yl)piperidin-4-yl)propoxy)-2-fluorophenyl)-1-(3,3-difluoro-1-((2S,3S,4R)-2,3,4,5-tetrahydroxypentyl)-1,6-diazaspiro[3.3]heptan-6-yl)ethan-1-one]
14 | 100 to 130% | ≤ 100 nM | O=C(Cc1ccc(OCCCC2CC3(CCN(c4ncc(Cl)cn4)CC3)C2)cc1F)N1CCN(C[C@H](O)[C@@H](O)[C@H](O)[C@H](O)CO)CC1 [Example 111, 2-(4-(3-(7-(5-chloropyrimidin-2-yl)-7-azaspiro[3.5]nonan-2-yl)propoxy)-2-fluorophenyl)-1-(4-((2S,3R,4R,5R)-2,3,4,5,6-pentahydroxyhexyl)piperazin-1-yl)ethan-1-one]
15 | 100 to 130% | ≤ 100 nM | CCc1cnc(N2CCC(CCCOc3cc(F)c(CC(=O)N4CCN(C[C@H](O)[C@@H](O)[C@H](O)[C@H](O)CO)CC4)c(F)c3)CC2)nc1 [Example 93, 2-(4-(3-(1-(5-ethylpyrimidin-2-yl)piperidin-4-yl)propoxy)-2,6-difluorophenyl)-1-(4-((2S,3R,4R,5R)-2,3,4,5,6-pentahydroxyhexyl)piperazin-1-yl)ethan-1-one]
16 | ≥ 130% | ≤ 100 nM | O=C(Cc1ccc(OCCCC2CCN(c3ncc(Cl)cn3)CC2)cc1F)N1CC2(CCCN2C[C@H](O)[C@H](O)[C@H](O)CO)C1 [Example 60, 2-(4-(3-(1-(5-chloropyrimidin-2-yl)piperidin-4-yl)propoxy)-2-fluorophenyl)-1-(5-((2S,3S,4R)-2,3,4,5-tetrahydroxypentyl)-2,5-diazaspiro[3.4]octan-2-yl)ethan-1-one]
17 | 100 to 130% | ≤ 100 nM | O=C(Cc1ccc(OCCCC2CCN(c3ncc(Cl)cn3)CC2)cc1F)N1CCC2(CN(C[C@H](O)[C@H](O)[C@H](O)CO)C2)C1 [Example 28, 2-(4-(3-(1-(5-chloropyrimidin-2-yl)piperidin-4-yl)propoxy)-2-fluorophenyl)-1-(2-((2S,3S,4R)-2,3,4,5-tetrahydroxypentyl)-2,6-diazaspiro[3.4]octan-6-yl)ethan-1-one]
18 | 100 to 130% | ≤ 100 nM | O=C(Cc1ccc(OCCCC2CCN(c3ncc(Cl)cn3)CC2)cc1F)N1CCC2(CN(C[C@H](O)[C@@H](O)[C@H](O)[C@H](O)CO)CCO2)C1 (stereo partly drawn) [Example 73, 2-(4-(3-(1-(5-chloropyrimidin-2-yl)piperidin-4-yl)propoxy)-2-fluorophenyl)-1-(9-((2S,3R,4R,5R)-2,3,4,5,6-pentahydroxyhexyl)-6-oxa-2,9-diazaspiro[4.5]decan-2-yl)ethan-1-one]
19 | 100 to 130% | 100 to 1000 nM | CC(C)OC(=O)N1CCC(CCCOc2ccc(CC(=O)N3CCN(C[C@H](O)[C@@H](O)[C@H](O)[C@H](O)CO)CC3)c(F)c2)CC1 [Example 104, isopropyl 4-(3-(3-fluoro-4-(2-oxo-2-(4-((2S,3R,4R,5R)-2,3,4,5,6-pentahydroxyhexyl)piperazin-1-yl)ethyl)phenoxy)propyl)piperidine-1-carboxylate]

Row | SMILES | Emax | EC50
20 | CC1(CCCCOc2ccc(CC(=O)N3CCN(C[C@H](O)[C@@H](O)[C@H](O)[C@H](O)CO)CC3)c(F)c2)CCN(c2ncc(Cl)cn2)CC1 [Example 107, 2-(4-(4-(1-(5-chloropyrimidin-2-yl)-4-methylpiperidin-4-yl)butoxy)-2-fluorophenyl)-1-(4-((2S,3R,4R,5R)-2,3,4,5,6-pentahydroxyhexyl)piperazin-1-yl)ethan-1-one] | 100 to 130% | 100 to 1000 nM
21 | COCc1cnc(N2CCC(CCCCOc3ccc(CC(=O)N4CCN(C[C@H](O)[C@@H](O)[C@H](O)[C@H](O)CO)CC4)c(F)c3)CC2)nc1 [Example 100, 2-(2-fluoro-4-(4-(1-(5-(methoxymethyl)pyrimidin-2-yl)piperidin-4-yl)butoxy)phenyl)-1-(4-((2S,3R,4R,5R)-2,3,4,5,6-pentahydroxyhexyl)piperazin-1-yl)ethan-1-one] | 100 to 130% | 100 to 1000 nM
